# Assay results: patent US20250179481A1, “COMPOSITIONS AND METHODS FOR TARGETING, EDITING, OR MODIFYING GENES” (Celyntra Therapeutics SA, priority 2021, published 2025)
# How the values were obtained:
# AAVS1 = test: CAR insertion efficiency at AAVS1 in primary T-cells; assay type: cell-based, human
# Protocol: T-cells were isolated from human peripheral blood obtained from healthy adults by immune-magnetic negative selection using the EasySep Human T-cell Isolation Kit ([sequence] Technologies). After isolation, T-cells were activated in 25 μL mL^−1 ImmunoCult Human CD3/CD28/CD2 T-Cell Activator ([sequence] Technologies) in ImmunoCult-XF T-Cell Expansion Medium ([sequence] Technologies) containing 12.5 ng mL^−1 Human Recombinant IL-2, 5 ng mL^−1 IL-7, and 5 ng mL^−1 IL-15 ([sequence] Technologies) and seeded at 1.0×10^6 cells mL^−1. Until transfection 48 hours later, the cells were cultured at 37° C., in 5% CO2 incubators.
# Donor templates comprising site-specific homology arms, respective promoter, and respective gene (GFP or Hu19 scFv-CD8a-CD28-CD3ζ CAR) were amplified from corresponding pTwist Ampicillin high-copy plasmids (Twist Bioscience) using homology arms-specific PCR primers. […] Purified HDR templates were collected and quantified on NanoDrop One Microvolume UV-Vis Spectrophotometer (ThermoFisher Scientific). […] HDR templates were collected, diluted, and concentrations quantified using Qubit dsDNA HS Assay Kit (ThermoFisher Scientific). […]
# primary Pan-T donors = conditions: primary Pan-T cells, RNP + ssODN, M3814 for 24 hours after transfection
# Protocol: The targeted ssODN template (Table 11) was transfected with RNPs in three primary Pan-T donors. Cell pools were harvested post recovery for genotypic evaluation (i.e. modification incorporation via NGS) and also functional analysis (FACS staining).
# Conditions were the same as Example 1, and in addition after transfection the cells were treated with the HDR enhancer M3814 for 24 hours to block the NHEJ pathway and 5 thereby increase the incorporation of the ssODN at the on-target side.
# [1] = test system: PDCD1, TIM3, LAG3, TIG1T, CTLA4, PTPN6, PTPN11 and CD247; test: gNA screen: INDEL frequency at eight loci in Jurkat T-cell leukemia cell line; assay type: cell-based, human; conditions: gNAs adjacent to all YTTN PAM variants
# Protocol: Ribonucleoprotein complexes (RNPs) were generated by incubating respective guide nucleic acids (gNAs) with MAD7 in the molar ratio of 3:2 gNA: MAD7 for 15 minutes at room temperature immediately before transfection. For Jurkat experiments, the RNP complexes were generated by mixing the respective gNA ([…]), MAD7 ([…]), and nuclease-free water, unless otherwise stated.
# Lonza 4D Nucleofector with Shuttle unit (V4SC-2960 Nucleocuvette Strips) was used for transfection, following the manufacturer's instructions. […]
# Extracted genomic DNA was quantified using the NanoDrop (ThermoFisher Scientific). […] The DNA was eluted from the beads with nuclease-free water and the size of the purified amplicons analyzed on a 2% agarose E-gel using the E-gel electrophoresis system (ThermoFisher Scientific). In the second PCR, unique pairs of Illumina-compatible indexes (Nextera XT Index Kit v2) were added to the amplicons using the KAPA HiFi HotStart Ready Mix (Roche). […] Sizes of the purified DNA fragments were validated on a 2% agarose gel using the E-gel electrophoresis system (ThermoFisher Scientific), quantified using Qubit dsDNA HS Assay Kit (Thermo Fisher) and then pooled in equimolar concentrations. […] The final library was sequenced on Illumina MiSeq System using the MiSeq Reagent Kit v.2 (300 cycles, […], paired-end reads). […]
# CD247 = test: gNA validation: frameshift (ORF disruption) frequency, CD247; assay type: cell-based, human; conditions: Jurkat, CRISPResso2 ORF analysis
# Protocol: Initial quality assessment of the obtained reads was performed with FastQC36. The sequencing data were aligned and analyzed with the CRISPResso2 software, using CRISPRessoBatch command with the parameters—cleavage_offset 1—quantification_window_size 10—quantification_window_center 1—expand_ambiguous_alignments for the INDEL frequency analysis. For the ORF disruption analysis, CRISPRessoBatch command with the parameters—cleavage_offset 1—coding_seq <EXON_SEQ>—quantification_window_size 0—quantification_window_center 1—expand_ambiguous_alignments was used. Modification rates from the CRISPResso2 software output were analyzed in Excel.
# (§1) High-efficiency gNAs identified in our initial analysis were validated by assaying INDEL frequency for the top three or five gNAs for each of the selected immunologically relevant genes (FIG. 15). […] Alternating grey and white zones on the plot represent groups of three to five high-efficiency gNAs per locus. […] Using the CRISPresso2 software, the degree of open reading frame (ORF) disruption for each of the validated gNAs was estimated (FIG. 15). In addition, for four high-efficiency gNAs targeting three different exons at the PDCD1 locus, surface expression of the PDCD1 protein was measured by flow cytometry 4, 7, and 11 days post-transfection (data not shown).
# Average fraction of INDELs leading to frameshifts (dashed line) is approx. 66%. […]
# AAVS1 locus = test: INDEL frequency at the AAVS1 locus in Jurkat cells; assay type: cell-based, human; conditions: MAD7 RNP
# Text: The Jurkat T-cell leukemia cell line was used to evaluate the transgene insertion and expression efficiency using CRISPR-MAD7 RNP complexes. […] Specifically. […] Dark grey bars represent mean INDEL frequency using crAAVS1. Light grey bars represent mean modification frequency using crIDTneg (IDT). The HDR inserts comprised eight promoters (Table 4) differing in both size and promoter strength to drive GFP expression (FIG. 21). […] Specifically. […] HDR templates consisting of eight different promoters and flanked with symmetric homology arms of 500 base pairs in the amount of 0.5 μg μL^−1 were used. Size of promoters in base pairs: CMV, 1400; SCP, 970; CMVe-SCP, 1270; CMVmax, 1830; JET. 1100; CAG, 2600; PGK, 1410; EF-1a, 2090. Dark grey bars and circles present mean insertion frequency and cell viability using crAAVS1. Light grey bars represent mean insertion frequency and cell viability using crIDTneg (IDT).
# PDCD1 protein = test: Surface expression of the PDCD1 protein by flow cytometry in Jurkat cells; assay type: cell-based, human; conditions: flow cytometry 4, 7 and 11 days post-transfection, crPDCD1_2 value at day 4, same at day 11
# Protocol: For detection of PDCD1 knock-out efficiency, approx. 250,000 Jurkat cells per sample were transferred onto 96-well V-bottom cell culture plates and assessed following a series of consecutive washing and staining steps. The first step included centrifuging the cells at 300 g for 5 minutes at 4° C., and discarding the supernatant. Afterwards, the cells were stained using 100 μL Cell Staining Buffer (Biolegend) with APC/Cyanine7 anti-human CD279 (PD-1) antibody (1:100: Biolegend) and incubated for 30 minutes at 4° C., in the dark. The cells were then centrifuged at 300 g for 5 minutes at 4° C., and the supernatant discarded. The next step included two repeats of centrifugation at 300 g for 5 minutes at 4° C., supernatant removal, and cell washing in 150 μL ice-cold Cell Staining Buffer (Biolegend). In the final step, the cells were re-suspended in 100 μL Cell Staining Buffer for the flow cytometry measurements (excitation: red laser; emission: […]).
# as §1
# [2] = test system: predicted off-target sites; test: INDEL frequency at predicted off-target sites (CasOFFinder, targeted deep sequencing) in Jurkat cells; assay type: cell-based, human; conditions: crPDCD1: <=4 mismatches, remaining gNAs <=3 mismatches, vs MOCK, Pairwise T-test
# Protocol: Another consideration for selecting gNAs is the potential for off-target cleavage events. The list of validated gNAs was analyzed using the CasOFFinder software to predict potential off-target editing sites in the genome with up to four mismatches between the gNA and the target DNA sequence. Using the Bioconductor R packages, the predicted off-target sites were matched with the human gene database, and those sites that targeted exons and introns within the genes were extracted. Afterwards, the degree of editing activity at these sites was examined by targeted next-generation sequencing, more specifically, at 25 predicted off-target sites for the top-two PDCD1 gNAs, i.e., crPDCD1_1 and crPDCD1_2. […] INDEL frequency at 43 putative off-target sites with up to three mismatches between gNA and target DNA sequence were assayed for the top-two gNAs targeting seven remaining genes (i.e., TIM3, LAG3, TIG1T, CTLA4, PTPN6, PTPN11, and CD247; spacer sequences in Table 5). […] Specifically. FIGS. 18-19 show INDEL frequency of MAD7 (n=3; Mean±SD) in T-cell leukemic cell line at predicted off-target sites analyzed by targeted deep sequencing. For crPDCD1. INDEL frequency was analyzed at the putative off-target editing sites with ≤4 mismatches between the gNA and target DNA sequence, and with ≤3 mismatches on the remaining gNAs.
compound,measurement,setting,value
poly-L-glutamic acid [PGA],"CAR insertion efficiency, treatment with PGA compared to without PGA","AAVS1; primary T-cells, P<=0.05, data not shown",higher
COc1ccc([C@@H](O)c2cc(-c3ncnc4cc(N5CCOCC5)ccc34)c(F)cc2Cl)nn1 [M3814],more efficient CAR insertion than other experiments,AAVS1,~5 times
same,increase in perfect HDR,primary Pan-T donors,1.5 fold
"MAD7: type V-A Cas nuclease, SEQ ID NO: 37",editing by PAM motif,[1],editing with all eight combinations of YTTN PAM
"crCD247_4: validated high-efficiency gNA, CD247 (guide CTAGCAGAGAAGGAAGAACCC; spacer only, further chemistry not given here)",frameshifts frequency (fraction of frameshift to INDEL),CD247,97%
"crAAVS1: highly active gNA targeting the AAVS1 safe-harbor locus, spacer sequence in Table 5 (guide TTAGGATGGCCTTCTCCGACG; spacer only, further chemistry not given here)",INDEL frequency at the AAVS1 locus,AAVS1 locus,highly active
"crPDCD1_2: gNA targeting the PDCD1 gene at the extracellular domain of the protein (guide TCTGCAGGGACAATAGGAGCC; spacer only, further chemistry not given here)",surface expression of the PDCD1 protein,PDCD1 protein,10%
same,INDEL frequency at predicted off-target sites,[2],low-level off-target activity
